US20220227729A1, “IDENTIFICATION AND USE OF KRAS INHIBITORS” (Bayer Aktiengesellschaft, priority 2019, published 2022)

How the values were obtained:
KRAS^G12C = KRAS^G12C (Homo sapiens, UniProt P01116, G12C); test: KRAS G12C activation by SOS1cat assay (On-assay), HTRF; conditions: SOS1cat mediated loading of GST-KRAS G12C-GDP with fluorescent GTP analogue; 180 min preincubation; 20° C.; read-out: IC50 value biochemical KRAS^G12C activation assay
Procedure: (§1) Preparation of test compound dilutions. A 100-fold concentrated solution of the test compound (50 nL) in DMSO was transferred to microtiter test plates (384 or 1,536 wells, Greiner Bio-One, Germany) using either a Hummingbird liquid handler (Digilab, MA, USA) or an Echo acoustic system (Labcyte, CA, USA). Plates were sealed with adhesive foil or heat-sealed and stored at −20° C. until use. Serial dilutions of test compounds were prepared in 100% DMSO using a Precision Pipetting System (BioTek, USA).
(§2) Measurement and evaluation of inhibition data, calculation of IC50 values. Homogeneous time-resolved fluorescence (HTRF) was measured with a PHERAstar reader (BMG, Germany) using the HTRF module (excitation: 337 nm; emission 1: 620 nm, emission 2: 665 nm). The ratio of the emissions at 665 and 620 nm was used as the specific signal for further evaluation. The data were normalized using the controls: DMSO=0% inhibition, inhibition control wells with inhibitor control solution=100% inhibition. Compounds were tested in duplicates at up to 11 concentrations (e.g. 20 μM, 5.7 μM, 1.6 μM, 0.47 μM, 0.13 μM, 38 nM, 11 nM, 3.1 nM, 0.89 nM, 0.25 nM and 0.073 nM). IC50 values were calculated using a four-parameter fit, with a commercial software package (Genedata Screener, Switzerland).
(§3) KRAS^G12C activation by SOS1^cat assay (“On-assay”). This assay quantifies SOS1^cat mediated loading of KRAS^G12C-GDP with a fluorescent GTP analogue. Detection of successful loading was achieved by measuring resonance energy transfer from anti-GST-terbium (FRET donor) bound to GST-KRAS^G12c to the loaded fluorescent GTP analogue (FRET acceptor). The fluorescent GTP analogue EDA-GTP-DY-647P1 [2′/3′-O-(2-aminoethyl-carbamoyl)guanosine-5′-triphosphate labelled with DY-647P1 (Dyomics GmbH, Germany)] was synthesized by Jena Bioscience (Germany) and supplied as a 1 mM aqueous solution. A KRAS^G12C working solution was prepared in assay buffer [10 mM HEPES pH 7.4 (AppliChem), 150 mM NaCl (Sigma), 5 mM MgCl2 (Sigma), 1 mM DTT (Thermo Fisher), 0.05% BSA Fraction V pH 7.0 (ICN Biomedicals), 0.0025% (v/v) Igepal (Sigma)] containing 100 nM GST-KRAS^G12C and 2 nM anti-GST-terbium (Cisbio, France). A SOS1^cat working solution was prepared in assay buffer containing 20 nM SOS1^cat and 200 nM EDA-GTP-DY-647P1. An inhibitor control solution was prepared in assay buffer containing 200 nM EDA-GTP-DY-647P1 without SOS1^cat. All steps of the assay were performed at 20° C. A volume of 2.5 μL of the KRAS^G12C working solution was added to all wells of the test plate using a Multidrop dispenser (Thermo LabSystems). After 180 min, 2.5 μL of the SOS1^cat working solution was added to all wells, except for the inhibitor control solution wells. After 30 min incubation, HTRF was measured.

[1] = biological target: recombinant kRas mutant (G12C; C51S; C80L; C118S) (Homo sapiens, UniProt P01116, C118S/C51S/C80L/G12C); test: Covalent binding assay, intact mass LC-MS; conditions: 25 μM protein, 25 μM compound, room temperature, 2 h
Procedure: The percentage of covalent adduct formation at KRas G12C was determined by intact mass determination. To this end 25 μM recombinant kRas mutant (G12C; C51S; C80L; C118S) (storage buffer: 50 mM Tris, pH=8; 50 mM NaCl) were incubated with 25 μM of compound (1% v/v final DMSO concentration) at room temperature for 2 h. For LC-MS analysis the reaction was acidified by adding 4 μL of 4% v/v TFA to 20 μL reaction volume.
Liquid chromatography-mass spectrometry (LC-MS) analysis was performed using a Waters SYNAPT G2-S quadrupole time-of-flight mass spectrometer connected to a Waters nanoAcquity UPLC system. Samples were loaded on a 2.1×5 mm mass prep C4 guard column (Waters) and desalted with a short gradient (3 min.) of increasing concentrations of acetonitrile at a flow rate of 100 μL/min. Spectra were analyzed by using MassLynx v4.1 software and deconvoluted with the MaxEnt1 algorithm.
Percent conversion was determined by the ratio of signal intensities of apo-kRas and kRas+inhibitor.

KRAS^WT = KRAS^WT (Homo sapiens, UniProt P01116); test: Wild-type KRAS activation by SOS1cat assay, HTRF; conditions: SOS1cat mediated loading of GST-KRAS WT-GDP with fluorescent GTP analogue; 50 nM GST-KRAS WT; read-out: IC50 value biochemical KRAS^wt activation assay
Procedure: as §1, §2, §3
Wild-type KRAS activation by SOS1^cat assay. This assay quantifies human SOS1^cat mediated loading of wild-type GST-KRAS^WT-GDP with a fluorescent GTP analogue. The assay was performed similar to the KRAS^G12C activation by SOS1^cat assay. GST-KRAS^G12C was replaced by GST-KRAS^WT, which was used at 50 nM final concentration.

Compound | IC50 (KRAS^G12C) [µM] | Covalent Binding Assay (% binding) [1] [%] | IC50 (KRAS^WT) [µM]
C=CC(=O)N1CCC(c2nc3ccc(-c4cncc5ccccc45)cc3c(=O)[nH]2)C1 (stereo not drawn) [Example 18, 6-(Isoquinolin-4-yl)-2-[1-(prop-2-enoyl)pyrrolidin-3-yl]quinazolin-4(3H)-one] | > 20 | 4 | > 20
C=CC(=O)N1CCC(c2cc3cnc(-c4c(F)cccc4OC)cc3c(=O)[nH]2)C1 (stereo not drawn) [Example 41, 7-(2-Fluoro-6-methoxyphenyl)-3-[1-(prop-2-enoyl)pyrrolidin-3-yl]-2,6-naphthyridin-1(2H)-one] | > 20 | 32 | > 20
C=CC(=O)N1CCC(c2nc3cc(Cl)c(-c4ccc(F)cc4F)cc3c(=O)[nH]2)C1 (stereo not drawn) [Example 23, 7-Chloro-6-(2,4-difluorophenyl)-2-[1-(prop-2-enoyl)pyrrolidin-3-yl]quinazolin-4(3H)-one] | > 20 | 34 | > 20
C=CC(=O)N1CCC(c2nc3ccc(-c4cccnc4N4CCOCC4)cc3c(=O)[nH]2)C1 (stereo not drawn) [Example 20, 6-[2-(Morpholin-4-yl)pyridin-3-yl]-2-[1-(prop-2-enoyl)pyrrolidin-3-yl]quinazolin-4(3H)-one] | > 20 | 3 | > 20

Other lines, results leading:

IC50 (KRAS^G12C) [µM] | Covalent Binding Assay (% binding) [1] [%] | IC50 (KRAS^WT) [µM] | Compound
6.8 | 60 | > 20 | C=CC(=O)N1CCC(c2cc3ncc(-c4ccccc4CC)cc3c(=O)[nH]2)C1 (stereo not drawn) [Example 33, 3-(2-Ethylphenyl)-7-[1-(prop-2-enoyl)pyrrolidin-3-yl]-1,6-naphthyridin-5(6H)-one]
4.7 | 66 | > 20 | C=CC(=O)N1CCC(c2nc3cnc(-c4c(C)ccc5[nH]ncc45)cc3c(=O)[nH]2)C1 (stereo not drawn) [Example 40, 6-(5-Methyl-1H-indazol-4-yl)-2-[1-(prop-2-enoyl)pyrrolidin-3-yl]pyrido[3,4-d]pyrimidin-4(3H)-one]
> 19 | 41 | > 20 | C=CC(=O)N1CCC(c2nc3cc(Cl)c(-c4cccc5ncccc45)cc3c(=O)[nH]2)C1 (stereo not drawn) [Example 26, 7-chloro-2-[1-(prop-2-enoyl)pyrrolidin-3-yl]-6-(quinolin-5-yl)quinazolin-4(3H)-one]
